Data as given in patent EP0372582A2, “6-Aminoalkyl carbapenems” (Bristol-Myers Squibb Company, priority 1988, dated 1990).
Read-outs that look alike come from different tables or passages of the source.

What was measured:
[1] = tested on: Staph. serum; test: M.I.C., tube dilution method in Nutrient Broth; type: cell-based
Procedure: (§1) The following procedures illustrate the application of the process of this invention to the preparation of a variety of compounds of Formula V. In many instances, data illustrating the biological activity of the substances as antibiotics are presented. […] It is determined by interpolation from a graph of concentration versus number of cells following exposure of the organism to the test compound under growth conditions. Another parameter such as optical density which is proportional to the cell count may be used. In some instances MIC₉₀ values are also given. The latter refers to 90% growth inhibition.

[2] = Chemical stability in aqueous solution (half-life); type: physicochemical
Procedure: Chemical stability in aqueous solution at pH 7.4 and pH 2.0 is reported as half-life (t1/2). These values are determined by interpolation from a graph of concentration of test substance remaining in solution after storage under selected conditions for various periods of time.

[3] = tested on: E. coli; test: Protective dose (PD50) in infected animals; type: in vivo, mice; set-up: unit not given here
From the text: The PD₅₀ values are protective doses, or the dose of test compound which secures survival of 50% of the animals of a test group, usually mice, during a designated period of time after being infected with an inoculum of infectious organism which will result in death of all inoculated untreated animals during that test period.

[4] = Blood concentration parameters after administration to mice; type: in vivo; details: for half-life / AUC / Cmax: mouse, mice; for half-life: blood half-life
From the text: […] "Cmax" is the maximum concentration achieved, "t1/2" is the half-life or time for half of the absorbed material to disappear from the blood stream.

[5] = tested on: Staph aur. MR; test: M.I.C., tube dilution method in Nutrient Broth; type: cell-based; details: unit assumed
Procedure: as §1

[6] = tested on: Str. pneu. A9585; test: M.I.C., tube dilution method in Nutrient Broth; type: cell-based; details: unit assumed
Procedure: as §1

[7] = tested on: P. mir. A9900; test: M.I.C., tube dilution method in Nutrient Broth; type: cell-based; details: unit assumed
Procedure: as §1

[8] = tested on: Staph aur. Pen+; test: M.I.C., tube dilution method in Nutrient Broth; type: cell-based; details: unit assumed
Procedure: as §1

[9] = tested on: P. morg. A15153; test: M.I.C., tube dilution method in Nutrient Broth; type: cell-based; details: unit assumed
Procedure: as §1

[10] = tested on: Ps. aeru. A9843; test: M.I.C., tube dilution method in Nutrient Broth; type: cell-based; details: unit assumed
Procedure: as §1

[11] = tested on: P. rett. A22424; test: M.I.C., tube dilution method in Nutrient Broth; type: cell-based; details: unit assumed
Procedure: as §1

[12] = tested on: Ent. clo. A9656; test: M.I.C., tube dilution method in Nutrient Broth; type: cell-based; details: unit assumed
Procedure: as §1

[13] = tested on: P. vul. A21559; test: M.I.C., tube dilution method in Nutrient Broth; type: cell-based; details: unit assumed
Procedure: as §1

[14] = tested on: E. coli A15119; test: M.I.C., tube dilution method in Nutrient Broth; type: cell-based; details: unit assumed
Procedure: as §1

[15] = tested on: Str. pyo. A9604; test: M.I.C., tube dilution method in Nutrient Broth; type: cell-based; details: unit assumed
Procedure: as §1

[16] = tested on: Ser. mars. A20019; test: M.I.C., tube dilution method in Nutrient Broth; type: cell-based; details: unit assumed
Procedure: as §1

[17] = tested on: E. coli A20341; test: M.I.C., tube dilution method in Nutrient Broth; type: cell-based; details: unit assumed
Procedure: as §1

[18] = tested on: K. pneu. A20468; test: M.I.C., tube dilution method in Nutrient Broth; type: cell-based; details: unit assumed
Procedure: as §1

[19] = tested on: Ent. clo. A9659; test: M.I.C., tube dilution method in Nutrient Broth; type: cell-based; details: unit assumed
Procedure: as §1

[20] = tested on: K. pneu. A9664; test: M.I.C., tube dilution method in Nutrient Broth; type: cell-based; details: unit assumed
Procedure: as §1

[21] = tested on: Str. faec. A20688; test: M.I.C., tube dilution method in Nutrient Broth; type: cell-based; details: unit assumed
Procedure: as §1

[22] = tested on: Staph. aur. A9537; test: M.I.C., tube dilution method in Nutrient Broth; type: cell-based; details: unit assumed
Procedure: as §1

[23] = citric acid buffer, pH 2, 37°C, pH 2.0 citric acid buffer, by hplc, read-out: t1/2, pH 2
[24] = phosphate buffer, pH 7.4, 37°C, pH 7.4 phosphate buffer, by uv, read-out: t1/2, pH 7.4 (converted)
[25] = blood, PO, 50 mg/kg, read-out: Cmax, PO/50
[26] = 37°C, pH 2.0 citric acid buffer, by hplc, read-out: t1/2, pH 2
[27] = 37°C, pH 7.4 phosphate buffer, by uv, read-out: t1/2, pH 7.4 (converted)

In the case of CCSC1=C(C(=O)O)N2C(=O)[C@H]([C@H](C)N)[C@H]2[C@H]1C [Procedure 60, (5S,6R) 6-(1′S-aminoethyl)-3-ethylthio-4R-methyl-7-oxo-1-azabicyclo[3.2.0]hept-2-ene-2-carboxylic acid], the “M.I.C. Staph. serum” value [1] is reported as 8.000.
In the case of CCSC1=C(C(=O)O)N2C(=O)[C@H]([C@@H](C)N)[C@H]2[C@H]1C [Procedure 7, (5S,6R) 6-(1′R-Aminoethyl)-3-ethylthio-4R-methyl-7-oxo-1-azabicyclo[3.2.0]hept-2-ene-2-carboxylic Acid], the half-life [2, 23] is reported as 2.8 h and the half-life [2, 24] is reported as 4.3 h.
With C[C@@H](N)[C@H]1C(=O)N2C(C(=O)O)=C(SCc3cccnc3)[C@H](C)[C@H]12 [Procedure 21, (5S,6R)-6-(1′R-Aminoethyl)-4R-methyl-3-[(pyridin-3-yl)methyl-thio]-7-oxo-1-azabicyclo[3,2,0]hept-2-ene-2-carboxylic Acid] the half-life [2, 23] was 2.4 h, the half-life [2, 24] was 3 h and the “PD50, E. coli” value ([3]; PO) was 8.10. It also gave a U.R. ([4]; listed after the PO/50 lines, abbreviation not defined) of 5, a half-life ([4]; 20 mg/kg, IM/20) of 0.2 h and an AUC ([4]; blood, 20 mg/kg, IM/20) of 7000 ng·h/mL. It also gave a Cmax ([4]; blood, 20 mg/kg, IM/20, read-out: Cmax, IM/20) of 18000 ng/mL, an AUC ([4]; blood, PO, 50 mg/kg) of 21000 ng·h/mL and a Cmax [4, 25] of 25000 ng/mL. For the same compound, the half-life ([4]; PO, 50 mg/kg) was 0.383 h.
CC[C@H]1C(SCc2cn(C)nn2)=C(C(=O)O)N2C(=O)[C@H]([C@H](C)N)[C@@H]12 [Procedure 52, (5S,6R) 6-(1′S-Aminoethyl)-4R-ethyl-3-[(1-metyl-1,2,3-triazol-4-yl)-methylthio]-7-oxo-1-azabicyclo[3.2.0]hept-2-ene-2-carboxylate] gave a M.I.C. Staph aur. MR [5] of 125 µg/mL, a M.I.C. Str. pneu. A9585 [6] of 8 µg/mL and a M.I.C. P. mir. A9900 [7] of 0.25 µg/mL. The M.I.C. Staph aur. Pen+ [8] was 125 µg/mL, the M.I.C. Staph. serum ([1]; unit assumed) was 63 µg/mL and the M.I.C. P. morg. A15153 [9] was 0.5 µg/mL. The M.I.C. Ps. aeru. A9843 [10] was 32 µg/mL, the M.I.C. P. rett. A22424 [11] was 4 µg/mL and the M.I.C. Ent. clo. A9656 [12] was 1 µg/mL. The M.I.C. P. vul. A21559 [13] was 0.25 µg/mL, the M.I.C. E. coli A15119 [14] was 0.5 µg/mL and the M.I.C. Str. pyo. A9604 [15] was 16 µg/mL. It also gave a M.I.C. Ser. mars. A20019 [16] of 1 µg/mL, a M.I.C. E. coli A20341 [17] of 0.5 µg/mL and a M.I.C. K. pneu. A20468 [18] of 2 µg/mL. For the same compound, the M.I.C. Ent. clo. A9659 [19] was 2 µg/mL, the M.I.C. K. pneu. A9664 [20] was 1 µg/mL and the M.I.C. Str. faec. A20688 [21] was 125 µg/mL. For the same compound, the M.I.C. Staph. aur. A9537 [22] was 32 µg/mL.
In the case of CSC1=C(C(=O)O)N2C(=O)[C@H]([C@@H](C)NC(=O)CNC(=O)[C@H](C)N)[C@H]2[C@H]1C [Procedure 38, (5S,6R) 6-(1′R-(L-alanylglycyl)aminoethyl)-4R-methyl-3-methylthio-7-oxo-1-azabicyclo[3.2.0]hept-2-ene--2-carboxylic Acid], the half-life [2, 23] is reported as under 0.0833 h, the half-life [2, 24] is reported as 29 h and the “PD50, E. coli” value ([3]; IM) is reported as 12.50. For the same compound, the “PD50, E. coli” value ([3]; PO) was 25.00 and the Cmax [4, 25] was 2000 ng/mL.
With CSC1=C(C(=O)O)N2C(=O)[C@H]([C@@H](C)N)[C@H]2[C@H]1C [Procedure 9, (5S,6R) 6-(1′R-Aminoethyl)-4R-methyl-3-methylthio-7-oxo-1-azabicyclo[3.2.0]hept-2-ene-2-carboxylic Acid] the half-life [2, 23] was 3.53 h, the half-life ([2]; phosphate buffer, pH 7.4, 22°C, pH 7.4 phosphate buffer, read-out: half-life (converted)) was 39 h and the half-life [2, 24] was 6.8 h. The “PD50, E. coli” value ([3]; IM) was 25.00, the “PD50, E. coli” value ([3]; PO) was 12.50 and the AUC ([4]; blood, PO, 50 mg/kg) was 5000 ng·h/mL. For the same compound, the Cmax [4, 25] was 9000 ng/mL and the half-life ([4]; PO, 50 mg/kg) was 0.3 h.
With CSC1=C(C(=O)[O-])N2C(=O)[C@H]([C@@H](C)[N+](C)(C)C)[C@H]2[C@H]1C [Procedure 36] the “M.I.C. Staph. serum” value [1] was 63.000.
With CSC1=C(C(=O)O)N2C(=O)[C@H]([C@@H](C)NC(=O)[C@H](CC(C)C)NC(=O)[C@H](C)N)[C@H]2[C@H]1C [Procedure 39, (5S,6R)-6-{1′R-(L-Alanyl-L-leucyl)aminoethyl}-4R-methyl-3-methylthio-7-oxo-1-azabicyclo[3.2.0]hept-2-ene-2-carboxylic Acid] the half-life [2, 23] was under 0.0833 h, the half-life [2, 24] was 46 h and the “PD50, E. coli” value ([3]; IM) was 25.00. For the same compound, the “PD50, E. coli” value ([3]; PO) was 25.00 and the Cmax [4, 25] was 2000 ng/mL.
For C[C@H](N)[C@H]1C(=O)N2C(C(=O)O)=C(SCc3cccnc3)[C@H](C)[C@H]12 [Procedure 58], the “M.I.C. Staph. serum” value [1] was 4.000.
For C[C@@H](N)C1C(=O)N2C(C(=O)O)=C(SCc3ccccc3)[C@H](C)[C@H]12 (stereo in doubt) [Procedure 12, (5S,6S) 6-(1′R-Aminoethyl)-3-benzylthio-4R-methyl-7-oxo-1-azabicyclo[3.2.0]hept-2-ene-2-carboxylic Acid], the half-life [2, 26] was 2.4 h, the half-life [2, 27] was 4.1 h and the AUC ([4]; in vivo, PO, 50 mg/kg) was 11000 ng·h/mL. The half-life ([4]; in vivo, PO, 50 mg/kg) was 0.217 h and the Cmax ([4]; in vivo, PO, 50 mg/kg, read-out: Cmax, PO/50) was 33000 ng/mL.
Work on C[C@H](N)[C@H]1C(=O)N2C(C(=O)O)=C(SCCC#N)[C@H](C)[C@H]12 [Procedure 35, (5S,6R) 6-(1′S-Aminoethyl)-3-(2-cyanoethylthio)-4R-methyl-7-oxo-1-azabicyclo[3.2.0]hept-2-ene-2-carboxylic Acid] yielded a half-life [2, 26] of 0.583 h and a half-life [2, 27] of 1.5 h.
In the case of C[C@@H](N)[C@H]1C(=O)N2C(C(=O)O)=C(SCCF)[C@H](C)[C@H]12 [Procedure 23], the “M.I.C. Staph. serum” value [1] is reported as 16.000.
For CC[C@H]1C(SC)=C(C(=O)O)N2C(=O)[C@H]([C@H](C)N)[C@@H]12 [Procedure 49, (5S,6R) 6-(1′S-Aminoethyl)-4R-ethyl-3-methylthio-7-oxo-1-azabicyclo[3.2.0]hept-2-ene-2-carboxylic Acid], the “M.I.C. Staph. serum” value [1] was 63.000.
In the case of CSC1=C(C(=O)O)N2C(=O)[C@H]([C@H](C)O)[C@H]2[C@H]1C [Procedure 4, (5S,6S) Potassium 6-(1′S-hydroxyethyl)-4R-methyl-3-methylthio-7-oxo-1-azabicyclo[3.2.0]hept-2-ene-2-carboxylate], the half-life [2, 24] is reported as 160 h.
For CSC1=C(C(=O)O)N2C(=O)[C@H]([C@H](C)N)[C@H]2[C@H]1C [Procedure 57, (5S,6R) 6-(1S-Aminoethyl)-4R-methyl-3-methylthio-7-oxo-1-1-azabicyclo[3.2.0]hept-2-ene-2-carboxylate], the “M.I.C. Staph. serum” value [1] was 16.000.
For C[C@@H](N)[C@H]1C(=O)N2C(C(=O)O)=C(SCCC#N)[C@H](C)[C@H]12 [Procedure 26, (5S,6R)-6-(1′R-Aminoethyl)-3-(2-cyanoethylthio)-4R-methyl-7-oxo-1-azabicyclo[3.2.0]hept-2-ene-2-carboxylic Acid], the half-life [2, 23] was 2.93 h and the half-life [2, 24] was 2.8 h.
In the case of CSC1=C(C(=O)O)N2C(=O)[C@H]([C@@H](C)NC(=O)CNC(=O)[C@@H](N)CC(C)C)[C@H]2[C@H]1C [Procedure 37], the “M.I.C. Staph. serum” value [1] is reported as 16.000.
In the case of CSC1=C(C(=O)[O-])N2C(=O)[C@H]([C@H](C)[N+](C)(C)C)[C@H]2[C@H]1C [Procedure 59, (5S,6R) 6-(1′S-N-Trimethylammonium-ethyl)-4R-methyl-3-methylthio-7-oxo-1-azabicyclo[3.2.0]hept-2-ene-2-carboxylate], the “M.I.C. Staph. serum” value [1] is reported as 8.000.
In the case of CSC1=C(C(=O)O)N2C(=O)[C@H]([C@H](C)NC(=O)CNC(=O)[C@@H](N)CC(C)C)[C@H]2[C@H]1C [Procedure 61, (5S,6R) 6-(1′S-(L-Leucylglycyl)aminoethyl)-4R-methyl-3-methylthio-7-oxo-1-azabicyclo[3.2.0]hept-2-ene-2-carboxylic Acid], the “M.I.C. Staph. serum” value [1] is reported as 63.000.
